Experiment [1] has as its system 92-94A (ligated, with 3' tether, annealed to biotin-DNA-Cy5) (DNA:RNA, riboswitch) UAUCAGUUAUAUGACUGACGGAACGUGGAAUUAACCACAUGAAGUAUAACGAUGACAAUGCCGACCGUCUGGGCGAACAAGCCUAGAUUGUAAAUUCAUUAGCGGUAUUCCGGAAUUGCCGUAAUCGCG/CGCGATTACGGCAATTCCGGAATACCGCTAATG
Briefly: smFRET. The settings on record: 150 mM KCl, 10 mM MgCl2; 50 mM HEPES-KOH pH 7.4; thermally refolded; partially responsive.

Experiment [2] relates to WT (ligated F. ulcerans ZTP riboswitch with 3' tether, annealed to biotin-DNA-Cy5) (DNA:RNA, riboswitch) UAUCAGUUAUAUGACUGACGGAACGUGGAAUUAACCACAUGAAGUAUAACGAUGACAAUGCCGACCGUCUGGGCGAACAAGCCUAGAUUGUCGGUUCAUUAGCGGUAUUCCGGAAUUGCCGUAAUCGCG/CGCGATTACGGCAATTCCGGAATACCGCTAATG
Nature of the experiment: smFRET. The settings on record: 150 mM KCl, 10 mM MgCl2; 50 mM HEPES-KOH pH 7.4; thermally refolded with 1 mM ZMP, ~10% bound; vectorially folded 38%.

Experiment [3] deals with 81-83A (ligated, with 3' tether, annealed to biotin-DNA-Cy5) (DNA:RNA, riboswitch) UAUCAGUUAUAUGACUGACGGAACGUGGAAUUAACCACAUGAAGUAUAACGAUGACAAUGCCGACCGUCUGGGCGAACAAAAAUAGAUUGUCGGUUCAUUAGCGGUAUUCCGGAAUUGCCGUAAUCGCG/CGCGATTACGGCAATTCCGGAATACCGCTAATG
Nature of the experiment: smFRET after vectorial folding (Rep-X). To be noted: 150 mM KCl, 10 mM MgCl2; 50 mM HEPES pH 7.4; larger bound fraction than WT.

Experiment [4] deals with 79-nt RNA ending at A79 (RNA, riboswitch) UAUCAGUUAUAUGACUGACGGAACGUGGAAUUAACCACAUGAAGUAUAACGAUGACAAUGCCGACCGUCUGGGCGAACA
Briefly: ITC. The settings on record: 150 mM KCl, 10 mM MgCl2; 50 mM HEPES-KOH pH 7.4, 37 °C; apparent; exact value in Supplementary Figure 1b.

The subject of experiment [5] is Δterm (ligated F. ulcerans ZTP aptamer with 3' tether, annealed to biotin-DNA-Cy5) (DNA:RNA, riboswitch) UAUCAGUUAUAUGACUGACGGAACGUGGAAUUAACCACAUGAAGUAUAACGAUGACAAUGCCGACCGUCUGGGCGUUCAUUAGCGGUAUUCCGGAAUUGCCGUAAUCGCG/CGCGATTACGGCAATTCCGGAATACCGCTAATG
Nature of the experiment: smFRET titration (TIRF), Langmuir fit. To be noted: 150 mM KCl, 10 mM MgCl2, 50 mM HEPES-KOH pH 7.4, thermally refolded, Pmax 71%, 1.5 μM after vectorial folding.

Experiment [6] relates to 81-83, 92-94A (ligated, with 3' tether, annealed to biotin-DNA-Cy5) (DNA:RNA, riboswitch) UAUCAGUUAUAUGACUGACGGAACGUGGAAUUAACCACAUGAAGUAUAACGAUGACAAUGCCGACCGUCUGGGCGAACAAAAAUAGAUUGUAAAUUCAUUAGCGGUAUUCCGGAAUUGCCGUAAUCGCG/CGCGATTACGGCAATTCCGGAATACCGCTAATG
Nature of the experiment: smFRET. The settings on record: 150 mM KCl, 10 mM MgCl2; 50 mM HEPES-KOH pH 7.4; thermally refolded; majority binds.

Structures are written as SMILES.

As usually defined, the apparent KD is a dissociation constant that holds for the conditions of the assay.

For the molecule `NC(=O)c1ncn([C@@H]2O[C@H](COP(=O)(O)O)[C@@H](O)[C@H]2O)c1N`, the binding result is “weak” in experiment [1], “weak” in experiment [2], “yes” in experiment [3] and “yes” in experiment [6]. For the same molecule, the Kd in experiment [4] is ~ 1 μM. In addition, in experiment [5], the “apparent KD” value came out at 1.3 µM.

The values are drawn from publication PMC7484762 (2020).
